The NIST ThermoML archive (doi:10.1021/je8004134)
Values joined by “and” are separate entries in the source; they are usually repeats but may differ in a detail not shown here. Equal entries are not always repeated. ± gives the expanded uncertainty stated by the source.

Legend:
[1] = an = ratio of the nth substance listed, in mol/kg; settings: 298.15 K, 101 kPa, Liquid; for speed of sound: Sing-around technique in a fixed-path interferometer; for mass density: Vibrating tube method
[2] = 298.15 K, 101 kPa, Liquid; for speed of sound: Sing-around technique in a fixed-path interferometer; for mass density: Vibrating tube method

[Mn+2].[O-][Cl+3]([O-])([O-])[O-].[O-][Cl+3]([O-])([O-])[O-] [manganese (II) perchlorate] + C[S+](C)[O-]
[1]
Settings	mass density [kg/m3]	speed of sound [m/s]
a1 = 0.0211	1099.48 ± 0.37	1485.3 ± 1.2
a1 = 0.02843	1100.98 ± 0.37	1485.8 ± 1.2
a1 = 0.037	1102.73 ± 0.37	1486.2 ± 1.2
a1 = 0.04758	1104.9 ± 0.37	1486.8 ± 1.2
a1 = 0.05763	1106.97 ± 0.37	1487.5 ± 1.2
a1 = 0.07358	1110.26 ± 0.37	1488.3 ± 1.2
a1 = 0.09456	1114.62 ± 0.37	1489.7 ± 1.2
a1 = 0.1139	1118.65 ± 0.38	1490.8 ± 1.2
a1 = 0.1337	1122.82 ± 0.38	1492 ± 1.2
a1 = 0.1566	1127.65 ± 0.38	1493.4 ± 1.2
a1 = 0.1754	1131.67 ± 0.38	1494.6 ± 1.2

C[S+](C)[O-] [dimethyl sulfoxide] + [Mn+2].[O-][Cl+3]([O-])([O-])[O-].[O-][Cl+3]([O-])([O-])[O-]
[1], a2 = 0
Settings	mass density [kg/m3]	speed of sound [m/s]
–	1095.19 ± 0.37	1484.1 ± 1.2

CC(=O)N(C)C [N,N-dimethylethanamide] + [Cl][Ni][Cl]
[1], a2 = 0
Settings	mass density [kg/m3]	speed of sound [m/s]
–	936.23 ± 0.25	1455.4 ± 1.2

[Ni+2].[O-][Cl+3]([O-])([O-])[O-].[O-][Cl+3]([O-])([O-])[O-] [nickel perchlorate] + C[S+](C)[O-]
[1]
Settings	mass density [kg/m3]	speed of sound [m/s]
a1 = 0.01259	1097.89 ± 0.37	1485 ± 1.2
a1 = 0.02515	1100.6 ± 0.38	1485.8 ± 1.2
a1 = 0.03816	1103.4 ± 0.38	1486.7 ± 1.2
a1 = 0.051	1106.18 ± 0.38	1487.5 ± 1.2
a1 = 0.06341	1108.88 ± 0.38	1488.4 ± 1.2
a1 = 0.07675	1111.79 ± 0.38	1489.2 ± 1.2
a1 = 0.08797	1114.24 ± 0.38	1490 ± 1.2
a1 = 0.1004	1116.98 ± 0.38	1491 ± 1.2
a1 = 0.1125	1119.67 ± 0.38	1491.7 ± 1.2
a1 = 0.1251	1122.43 ± 0.38	1492.6 ± 1.2

C[S+](C)[O-] [dimethyl sulfoxide] + [Cu+2].[O-][Cl+3]([O-])([O-])[O-].[O-][Cl+3]([O-])([O-])[O-]
[1], a2 = 0
Settings	mass density [kg/m3]	speed of sound [m/s]
–	1095.2 ± 0.38	1484.1 ± 1.2

CC(=O)N(C)C [N,N-dimethylethanamide] + [Cl][Co][Cl]
[1], a2 = 0
Settings	mass density [kg/m3]	speed of sound [m/s]
–	936.417 ± 0.25	1455.4 ± 1.2

CC(=O)N(C)C [N,N-dimethylethanamide] + [Mn+2].[O-][Cl+3]([O-])([O-])[O-].[O-][Cl+3]([O-])([O-])[O-]
[1], a2 = 0
Settings	mass density [kg/m3]	speed of sound [m/s]
–	936.213 ± 0.31	1455.4 ± 1.2

[Cu+2].[O-][Cl+3]([O-])([O-])[O-].[O-][Cl+3]([O-])([O-])[O-] [copper perchlorate] + CC(=O)N(C)C
[1]
Settings	mass density [kg/m3]	speed of sound [m/s]
a1 = 0.06523	950.245 ± 0.31	1463.1 ± 1.2
a1 = 0.09641	957.338 ± 0.32	1466.4 ± 1.2
a1 = 0.1434	968.019 ± 0.31	1471.3 ± 1.2
a1 = 0.1894	978.49 ± 0.31	1476.5 ± 1.2
a1 = 0.2336	988.543 ± 0.31	1481.5 ± 1.2
a1 = 0.2774	998.499 ± 0.31	1486.9 ± 1.2
a1 = 0.3204	1008.3 ± 0.31	1492.2 ± 1.2
a1 = 0.364	1018.21 ± 0.31	1498.1 ± 1.2

[Cl][Ni][Cl] [nickel chloride (NiCl2)] + CC(=O)N(C)C
[1]
Settings	mass density [kg/m3]	speed of sound [m/s]
a1 = 0.019	938.196 ± 0.25	1457 ± 1.2
a1 = 0.03382	939.871 ± 0.25	1458 ± 1.2
a1 = 0.05743	942.54 ± 0.25	1459.5 ± 1.2
a1 = 0.07634	944.678 ± 0.25	1460.8 ± 1.2
a1 = 0.09563	946.859 ± 0.25	1462 ± 1.2
a1 = 0.114	948.937 ± 0.25	1463.3 ± 1.2
a1 = 0.1327	951.046 ± 0.25	1464.5 ± 1.2
a1 = 0.1513	953.148 ± 0.25	1465.8 ± 1.2

[O-][Cl+3]([O-])([O-])[O-].[O-][Cl+3]([O-])([O-])[O-].[Zn+2] [zinc perchlorate] + C[S+](C)[O-]
[1]
Settings	mass density [kg/m3]	speed of sound [m/s]
a1 = 0.02918	1101.58 ± 0.38	1485.7 ± 1.2
a1 = 0.03465	1102.78 ± 0.38	1486 ± 1.2
a1 = 0.05104	1106.39 ± 0.38	1486.9 ± 1.2
a1 = 0.06794	1110.13 ± 0.38	1487.8 ± 1.2
a1 = 0.08574	1114.1 ± 0.38	1488.8 ± 1.2
a1 = 0.1022	1117.8 ± 0.39	1489.7 ± 1.2
a1 = 0.119	1121.58 ± 0.39	1490.7 ± 1.2
a1 = 0.1435	1127.14 ± 0.39	1492.2 ± 1.2
a1 = 0.1685	1132.85 ± 0.39	1493.7 ± 1.2

C[S+](C)[O-] [dimethyl sulfoxide]
[2]
Settings	mass density	speed of sound [m/s]
–	1095.19 ± 0.37 kg/m3 and 1095.2 ± 0.38 kg/m3 and 1095.19 ± 0.33 kg/m3	1484.1 ± 1.2

[O-][Cl+3]([O-])([O-])[O-].[O-][Cl+3]([O-])([O-])[O-].[Zn+2] [zinc perchlorate] + CC(=O)N(C)C
[1]
Settings	mass density [kg/m3]	speed of sound [m/s]
a1 = 0.04286	945.119 ± 0.31	1460.8 ± 1.2
a1 = 0.08313	954.115 ± 0.32	1464.9 ± 1.2
a1 = 0.1231	963.055 ± 0.31	1469 ± 1.2
a1 = 0.1625	971.852 ± 0.31	1473.2 ± 1.2
a1 = 0.2013	980.513 ± 0.31	1477.5 ± 1.2
a1 = 0.2396	989.07 ± 0.3	1481.9 ± 1.2
a1 = 0.2771	997.457 ± 0.3	1486.3 ± 1.2
a1 = 0.3148	1005.87 ± 0.3	1490.8 ± 1.2

CC(=O)N(C)C [N,N-dimethylethanamide] + [O-][Cl+3]([O-])([O-])[O-].[O-][Cl+3]([O-])([O-])[O-].[Zn+2]
[1], a2 = 0
Settings	mass density [kg/m3]	speed of sound [m/s]
–	936.15 ± 0.31	1455.4 ± 1.2

[Cl][Co][Cl] [cobalt chloride] + CC(=O)N(C)C
[1]
Settings	mass density [kg/m3]	speed of sound [m/s]
a1 = 0.02558	938.7 ± 0.25	1456.5 ± 1.2
a1 = 0.05173	941.28 ± 0.25	1457.3 ± 1.2
a1 = 0.07676	943.75 ± 0.25	1458 ± 1.2
a1 = 0.1024	946.279 ± 0.24	1458.9 ± 1.2
a1 = 0.1289	948.892 ± 0.24	1459.8 ± 1.2
a1 = 0.1539	951.355 ± 0.24	1460.7 ± 1.2
a1 = 0.181	954.035 ± 0.24	1461.6 ± 1.2
a1 = 0.2056	956.46 ± 0.24	1462.6 ± 1.2

CC(=O)N(C)C [N,N-dimethylethanamide]
[2]
Settings	mass density	speed of sound [m/s]
–	936.22 ± 0.25 kg/m3 [middle of 9 runs]	1455.4 ± 1.2

C[S+](C)[O-] [dimethyl sulfoxide] + [Cl][Ni][Cl]
[1], a2 = 0
Settings	mass density [kg/m3]	speed of sound [m/s]
–	1095.19 ± 0.34	1484.1 ± 1.2
